Source: patent US20070117784A1, “Treatment of hyperproliferative diseases with anthraquinones” (Novacea, Inc., priority 2005, published 2007)

What was measured:
[1] = mouse, in vivo
[2] = test system: KB-3; experiment: MTS cytotoxicity assay, KB-3; format: cell-based; conditions: KB3; KB-3 (radiation-resistant); normoxic; 24 h exposure
[3] = test system: Hep3B2.1-7; experiment: MTS cytotoxicity assay, Hep3B2.1-7; format: cell-based; conditions: normoxic, 24 h exposure
[4] = test system: KB; experiment: MTS cytotoxicity assay, KB; format: cell-based; conditions: Homo sapiens, normoxic, 24 h exposure
[5] = test system: FaDu; experiment: MTS cytotoxicity assay, FaDu; format: cell-based; conditions: Homo sapiens, normoxic, 24 h exposure
[6] = test system: BXPC-3; experiment: MTS cytotoxicity assay, BXPC-3; conditions: Homo sapiens, BXPC-3, 24 h
[7] = test system: human Panc-1 tumors; experiment: sc Panc-1 pancreatic xenograft, tumor growth delay; format: in vivo, nude mice; conditions: Panc-1 sc, gemcitabine treatment
Procedure: Mice were actively sacrificed as a cancer death when their tumors reached 1200 mm^3. Shown are Kaplan-Meier plots summarizing the percentage of the animals remaining in the study as a function of time following tumor inoculation. Treatment outcome was determined from TGD, defined as the increase in median TTE in a treatment group as compared to the control group.
In each case, a range of AQ4N dose schedules were evaluated to determine the optimum dosage for efficacy as a single agent.
In the Panc-1 model, the endpoint of the study was pre-defined to be when tumors reached 1200 mm^3 and treatment outcome was determined from tumor growth delay (TGD). TGD is defined as the increase in median time to endpoint (TTE) in a treatment group as compared to the control group, and expressed in days or as a percentage of the median TTE vs. the control group.

[8] = test system: MiaPaCa; experiment: MTS cytotoxicity assay, MiaPaCa; conditions: Homo sapiens, MIA PaCa-2, 24 h
[9] = test system: Panc-1; experiment: MTS cytotoxicity assay, Panc-1; conditions: Homo sapiens, PANC-1, 24 h
[10] = test system: human BxPC-3 pancreatic carcinoma; experiment: sc BxPC-3 pancreatic xenograft, tumor growth inhibition; format: in vivo, nude mice; conditions: BxPC-3 sc
Procedure: Shown are the mean (±SEM) tumor volumes measured from treatment and control groups following tumor challenge. The study was terminated when tumors from the vehicle-treated group reached an average of approximately 2 grams (day 27) and the % TGI was calculated as defined in the text. […] Animals were actively sacrificed when they became moribund from excessive tumor burden.

[11] = test system: BxPC-3 pancreatic carcinoma (orthotopic); experiment: Orthotopic BxPC-3 pancreatic carcinoma model, survival; conditions: BxPC-3 ot; gemcitabine treatment; P=0.04
[12] = test system: CCRF-CEM/VLB; experiment: MTS cytotoxicity assay, CCRF-CEM/VLB; conditions: Homo sapiens, 24 h
[13] = test system: CCRF-CEM; experiment: MTS cytotoxicity assay, CCRF-CEM; conditions: Homo sapiens, 24 h
[14] = test system: LS174T; experiment: MTS cytotoxicity assay, LS174T; format: cell-based; conditions: normoxic, 24 h exposure
[15] = test system: HCT116; experiment: MTS cytotoxicity assay, HCT116; format: cell-based; conditions: 24 h exposure
[16] = test system: LoVo; experiment: MTS cytotoxicity assay, LoVo; format: cell-based; conditions: normoxic, 24 h exposure
[17] = test system: HT-29; experiment: MTS cytotoxicity assay, HT-29; format: cell-based; conditions: normoxic, 24 h exposure
[18] = test system: KG1a; experiment: MTS cytotoxicity assay, KG1a; conditions: Homo sapiens, KG-1a, 24 h
[19] = test system: HL-60; experiment: MTS cytotoxicity assay, HL-60; conditions: Homo sapiens, HL-60, 24 h
[20] = test system: Namalwa; experiment: MTS cytotoxicity assay, Namalwa; conditions: Homo sapiens, 24 h
[21] = test system: L5178Y; experiment: MTS cytotoxicity assay, L5178Y; conditions: Mus musculus, 24 h
[22] = test system: Raji; experiment: MTS cytotoxicity assay, Raji; conditions: Homo sapiens, 24 h
[23] = test system: U87MG; experiment: MTS cytotoxicity assay, U87MG; format: cell-based; conditions: Homo sapiens, U-87 MG, normoxic, 24 h exposure
[24] = test system: RPMI8226; experiment: MTS cytotoxicity assay, RPMI8226; conditions: Homo sapiens, RPMI-8226, 24 h
[25] = test system: Ramos; experiment: MTS cytotoxicity assay, Ramos; conditions: Homo sapiens, 24 h
[26] = test system: Daudi; experiment: MTS cytotoxicity assay, Daudi; conditions: Homo sapiens, 24 h
[27] = test system: L1210; experiment: MTS cytotoxicity assay, L1210; conditions: Mus musculus, L1210, 24 h
[28] = test system: U251; experiment: MTS cytotoxicity assay, U251; format: cell-based; conditions: Homo sapiens, U-251, normoxic, 24 h exposure
[29] = test system: U118MG; experiment: MTS cytotoxicity assay, U118MG; format: cell-based; conditions: Homo sapiens, U-118-MG, normoxic, 24 h exposure
[30] = test system: P388; experiment: MTS cytotoxicity assay, P388; conditions: Mus musculus, P388, 24 h
[31] = test system: MOLT-4; experiment: MTS cytotoxicity assay, MOLT-4; conditions: Homo sapiens, MOLT-4, 24 h
[32] = test system: RPMI8226/Dox; experiment: MTS cytotoxicity assay, RPMI8226/Dox; conditions: Homo sapiens, RPMI-8226, 24 h
[33] = test system: B16-F10; experiment: MTS cytotoxicity assay, B16-F10; format: cell-based, human; conditions: Mus musculus, normoxic, 24 h exposure
[34] = test system: bladder cancer cell lines; conditions: previous data; cited from earlier work
[35] = test system: A375-SM; experiment: MTS cytotoxicity assay, A375-SM; format: cell-based, mouse; conditions: Homo sapiens, normoxic, 24 h exposure
[36] = test system: ARH177; experiment: MTS cytotoxicity assay, ARH177; conditions: 24 h
[37] = test system: MO59K cells (glioblastoma); experiment: Colony formation assay, combination with temozolomide and radiation
[38] = test system: K562; experiment: MTS cytotoxicity assay, K562; conditions: Homo sapiens, K562, 24 h
[39] = single 20 mg/kg dose of AQ4N; previous studies; cited from earlier work

CN(C)CCNc1ccc(NCC[N+](C)(C)[O-])c2c1C(=O)c1c(O)ccc(O)c1C2=O [AQ4M]
tumor level by 8 h [1]: minimal levels by 8 h for most doses
tumor level vs dose at 2 hr [1]: approximately linear with increasing dose
plasma level at 2 hr (240 mg/kg AQ4N dose): only trace amounts
metabolite detection in plasma (any AQ4N dose or time point): undetectable

CC(=O)O[C@H]1C(=O)[C@@]2(C)[C@H]([C@H](OC(=O)c3ccccc3)[C@]3(O)C[C@H](OC(=O)[C@H](O)[C@@H](NC(=O)c4ccccc4)c4ccccc4)C(C)=C1C3(C)C)[C@]1(OC(C)=O)CO[C@@H]1C[C@@H]2O [Taxol, reference compound]
IC50 [2]: 19.1 µM
IC50 [3]: 13.7 µM
IC50 [4]: 2 µM
IC50 [5]: 6.5 µM

Nc1ccn([C@@H]2O[C@H](CO)[C@@H](O)C2(F)F)c(=O)n1 [gemcitabine]
IC50 [6]: 0.0595 µM
TGD as percentage of median TTE vs control [7]: 19%
TTE ([7]; endpoint 1200 mm^3): 34.2 days
TGD (tumor growth delay) ([7]; non-significant): 5.4 days
IC50 [8]: 0.023 µM
IC50 [9]: 1.7 µM
TGI ([10]; gemcitabine treatment, ~day 27): 51%
TGI in comparison to vehicle-treated groups ([10]; single-agent, p<0.001, FIG. 20A): significant TGI
median survival [11]: 40 days

CCC1=C[C@@H]2CN(C1)Cc1c([nH]c3ccccc13)[C@@](C(=O)OC)(c1cc3c(cc1OC)N(C)[C@H]1[C@@](O)(C(=O)OC)[C@H](OC(C)=O)[C@]4(CC)C=CCN5CC[C@]31[C@@H]54)C2 [VLB, vinorelbine, reference compound]
IC50 [12]: 1040 µM
IC50 [13]: 0.01 µM

CCc1c2c(nc3ccc(O)cc13)-c1cc3c(c(=O)n1C2)COC(=O)[C@]3(O)CC [SN38, 7-ethyl-10-hydro-camptothecin, reference compound]
IC50 [14]: 0.0026 µM
IC50 ([15]; normoxic): 0.0484 µM
IC50 [16]: 0.0006 µM
IC50 [17]: 0.0651 µM

COc1cccc2c1C(=O)c1c(O)c3c(c(O)c1C2=O)C[C@@](O)(C(=O)CO)C[C@@H]3O[C@H]1C[C@H](N)[C@H](O)[C@H](C)O1 [Dox, doxorubicin, reference compound]
IC50 [18]: 0.6 µM
IC50 [19]: 0.1 µM
IC50 [20]: 0.0074 µM
IC50 [21]: 0.05 µM
IC50 [22]: 0.0009 µM
IC50 [23]: 0.4 µM
IC50 [24]: 0.1 µM
IC50 [25]: 0.0018 µM
IC50 [26]: 0.0005 µM
IC50 [27]: 0.05 µM
IC50 [28]: 0.03 µM
IC50 [29]: 0.03 µM
IC50 [30]: 0.1 µM
IC50 [31]: 0.0075 µM
IC50 [32]: 54.7 µM

CN(C)CCNc1ccc(NCCN(C)C)c2c1C(=O)c1c(O)ccc(O)c1C2=O [AQ4, 1,4-bis{[2-(dimethylamino)ethyl]amino}-5,8-dihydroxyanthracene-9,10-dione]
IC50 [33]: 0.02 µM
interaction with radiation [34]: additive interactions
IC50 [12]: 0.34 µM
IC50 [18]: 0.05 µM
IC50 [2]: 3.3 µM
tumor accumulation vs dose ([1]; 240 mg/kg): dose-dependent fashion
percent of near maximal tumor levels after 2 hr post-infusion ([1]; 2 h): 55-85%
percent of conversion occurring by 8 hr ([1]; 8 h): 80-100%
IC50 [13]: 0.62 µM
IC50 [35]: 3.3 µM
IC50 [3]: 0.8 µM
IC50 [19]: 0.01 µM
IC50 [20]: 0.0002 µM
IC50 [36]: 0.2 µM
IC50 [21]: 0.03 µM
IC50 [4]: 0.6 µM
IC50 [6]: 1.6 µM
IC50 [22]: 0.2 µM
IC50 ([14]; Homo sapiens): 0.95 µM
IC50 [23]: 0.9 µM
IC50 [24]: 0.2 µM
IC50 [25]: 0.008 µM
IC50 [5]: 0.3 µM
IC50 [26]: 0.0046 µM
IC50 [8]: 1.6 µM
combined cytotoxic effect with temozolomide and radiation ([37]; 48 hr combined treatment, 1.5 Gy at 24 hr, FIG. 24): additive and synergistic cytotoxic effects
combined cytotoxic effect with temozolomide ([37]; 48 hr temozolomide, 10-day colony formation, FIG. 23): additive and synergistic cytotoxic effects
IC50 [38]: 0.4 µM
IC50 ([15]; Homo sapiens, HCT-116, normoxic): 3.9 µM
IC50 [9]: 0.4 µM
IC50 [27]: 0.0012 µM
IC50 [28]: 0.6 µM
IC50 ([16]; Homo sapiens): 0.21 µM
IC50 [29]: 1.3 µM
IC50 [30]: 0.01 µM
time AQ4 can be detected in tumor tissues [39]: at least 2 weeks
IC50 ([17]; Homo sapiens): 0.7 µM
IC50 [31]: 0.002 µM
IC50 [32]: 1.1 µM
